Laboratory results as given in patent US20050014754A1, “Fused pyrrole compounds” (priority 2003, published 2005).
pIC50: −log10 of the molar value.

How the values were obtained:
[1] = system: PDE4; assay: In-vitro assay measuring PDE4 inhibition (PDE4 from U937 human monocytic cells, [3H]-cAMP SPA); format: biochemical; details: 23 nM [3H]-cAMP, 37° C., 30 min
Procedure: PDE4 was prepared from U937 human monocytic cells according to the method of Tenor et al. (Clin Exp Allegy (1995) 25:625-633). Briefly, U937 cells were homogenized in a mixture of pH 7.4 containing 10 mM Hepes, 1 mM b-mercaptoethanol, 1 mM MgCl2, 1 mM EGTA, 137 mM NaCl, 2.7 mM KCl, 1.5 mM KH2PO4, 8.1 mM Na2HPO4, 5 μM pepstain A, 10 μM leupeptin, 50 μM PMSF, 10 μM soybean trypsin inhibitor, and 2 mM benzamindine. The homogenate was centrifuged at 200,000×g for 30 min. PDE4 activity in the supernatant was assayed in a 200 μl reaction containing 40 mM Tris-HCl, pH 7.5, 23 nM [^3H]-adenosine 3′,5′ cyclic monophosphate (cAMP), 8.3 mM MgCl2, 1.7 mM EGTA, 0.25% DMSO, and a testing compound. The assay mixture was incubated at 37° C. for 30 min and the reaction was terminated by the addition of 100 μl of yttrium silicate SPA beads (Amersham Pharmacia Biotech, Piscataway, N.J.) suspended in 18 mM ZnSO4. The assay mixture was rotated for 3 min to ensure the binding of [^3H]-5′adenosine monophosphate to the beads. Finally, the beads was spun down, washed twice with 6 mM ZnSO4, resuspended in 100 μl of 0.1 N NaOH, and then counted for radioactivity in a liquid scintillation counter.

[2] = system: MDA435 (human breast cancer); assay: In-vitro assay measuring anti-cancer activity (MTS assay); format: cell-based; details: MDA435 cells, 72 hours incubation, read-out: IC50, concentration required to inhibit 50% tumor cell growth
Procedure: In vitro anti-cancer activity was determined in human cancer cell line MDA435 (human breast cancer), obtained from ATCC (American Type of Culture Collection).
The cell line was maintained in RPMI1640(GIBCO) supplemented with 10% FCS, 100 units/ml penicillin, 100 ug/ml streptomycin, and 2 mM L-glutamine. The cells were split every third day and diluted to a concentration of 2×10^5 cells/ml one day before experiment. The experiment was performed on exponentially growing cell culture. Cell densities were 2.5×10^4 cells/ml in this experiment.
A stock solution of Compound (I-4) was prepared by dissolving the compound at a concentration of 1 mM in 100% DMSO. Final concentrations were obtained by diluting the stock solution directly into the tissue culture medium. Cells were incubated with varying concentrations of the compound for 72 hours and the IC50 was determined by MTS (i.e. 3-(4.5.-dimethylthiazol-2-yl)-2.5-diphenyl tetrazolium bromide) assay. In this experiment, IC50 stands for the concentration of compound required to inhibit 50% tumor cell growth. Compound (I-4) provided an IC50 value of about 1 μM.

[3] = system: TNFα; assay: In-vitro assay measuring TNFα inhibition (LPS-stimulated human PBMC, ELISA); format: cell-based; details: human PBMC stimulated with LPS 1 μg/mL, supernatant after 18 h, read-out: IC50, inhibition of TNFα production
Procedure: Reagents. Lipopolysaccharide (LPS, Serratia marscencens) was obtained from Sigma (St. Louis, Mo.). RPMI-1640 medium and fetal calf serum (FCS) were purchased from the ATCC (Manassas, Va.).
Assay. Human peripheral blood cells (PBMC) were isolated by centrifugation using Ficoll-Paque (Pharmacia Biotech, Uppsala, Sweden) and suspended in RPMI-1640 medium supplemented with 10% FCS, 100 U/mL penicillin, and 100 μg/mL streptomycin. The cells were then plated in the wells of a 96-well plate at a concentration of 5×10^5 cells/well, and stimulated by adding LPS (1 μg/mL). Each test compound was dissolved in DMSO and added to the wells. The final DMSO concentration was adjusted to 0.25% in all cultures, including the compound-free control, and the concentrations of each test compound ranged from 0 to 10 μM. Cell-free supernatants were taken 18 h later for measurement of cytokines. Cell viability was assessed using the bioreduction of MTS [3-(4,5-dimethylthiazol-2-yl)-5-(3-carboxymethoxyphenyl)-2-(4-sulophenyl)-2H-tetrazolium] after 18 h and 48 h. Cell survival was estimated by determining the ratio of the absorbance in each of the compound-treated cultures to that in the compound-free control.
The supernatant was assayed for the amount of TNFα by using an ELISA assay with anti-human TNFa antibodies (Cell Sciences, Norwood, Mass.). The assay was carried out following the manufacturer's instructions.

Row | pIC50 [1] | pIC50 [2] | pIC50 [3] | SMILES
1 | ~8.30 | ~6.00 | ~7.30 | O=C(Nc1c(Cl)c[n+]([O-])cc1Cl)C(=O)c1cc(Cc2ccc(F)cc2)n2ncccc12 [Compound I-4, N-(3,5-Dichloro-1-oxy-pyridin-4-yl)-2-[7-(4-fluoro-benzyl)-pyrrolo[1,2-b]pyridazin-5-yl]-2-oxo-acetamide]
2 | – | – | ~6.00 | Cc1cc(NC(=O)C(=O)c2cc(Cc3ccc(C#N)cc3)n3ccsc23)sn1 [Compound I-10, 2-[5-(4-Cyano-benzyl)-pyrrolo[2,1-b]thiazol-7-yl]-N-(3-methyl-isothiazol-5-yl)-2-oxo-acetamide]
